This passage reports equivalent point and solubility results from US6277829A, “Process for preparing of aqueous formulation for opthalmic use” (S.I.F.I. Societa Industria Farmaceutica Italiana S.p.A., priority 1999, dated 2001).

The nature of series [1]: titration of azithromycin and clarithromycin, dispersed in water, with citric acid (FIG. 1, FIG. 2). As to conditions: titration with citric acid. The series is classed as physicochemical.
The nature of series [2]: solubility in aqueous solution. The series is classed as physicochemical. The following applies: water; compared with azithromycin; read-out: maximum concentration in water. The text has this:
Formulations containing azithromycin at concentration ranging from 0.01 to 10% w/v, more particularly between 0.3 and 5% w/v, are the most preferred.

Regarding `CC[C@H]1OC(=O)[C@H](C)[C@@H](O[C@H]2C[C@@](C)(OC)[C@@H](O)[C@H](C)O2)[C@H](C)[C@@H](O[C@@H]2O[C@H](C)C[C@H](N(C)C)[C@H]2O)[C@](C)(OC)C[C@@H](C)C(=O)[C@H](C)[C@@H](O)[C@]1(C)O` [clarithromycin], the equivalent point in series [1] is about 4.5 pH. The solubility in series [2] was under 20 mg/mL.
